Reference: PMC10427817, “Bioactivities of β-mangostin and its new glycoside derivatives synthesized by enzymatic reactions” (Royal Society Open Science, 2023)
≈ marks a conversion by molar mass, not a printed value. Where two headings read alike, the source gives them in different places.

Experiments:
[1] = test system: MCF-7 breast cancer; experiment: MTT cytotoxicity assay, MCF-7; type: cell-based, human; conditions: Homo sapiens, MCF7, MCF-7 cell line, 72 h, mean ± s.d., three replicates
Protocol: (§1) The cytotoxic activities against the cancer cell lines KB epidermal carcinoma, A549 lung cancer, HepG2 liver cancer and MCF-7 breast cancer, as well as the healthy cell line HEK293 embryonic kidney cells, were determined using the 3-(4,5-dimethylthiazol-2-yl)-2,5-diphenyltetrazolium bromide (MTT) assay. Briefly, cell lines were grown into log phase at 37°C, 5% CO2 in DMEM-Dulbecco's modified Eagle's medium and 10% fetal bovine serum. A concentration of 1 × 10^4–3 × 10^4 cells ml^−1 was prepared depending on the cell line used for the experiment by adding 10 µl of the sample and 190 µl of the cell suspension, followed by incubation under standard conditions. After 72 h of culture, 10 µl of MTT (5 mg ml^−1) was added and incubated for 4 h. Dimethyl sulfoxide (100 µl) was added to dissolve formazan crystals and the density was measured at 540 nm using a BioTek spectrophotometer. The inhibition of cell growth was expressed as IC50 (the half-maximal inhibitory concentration) value.

[2] = test system: Staphylococcus aureus; experiment: Anti-microbial activity assay, S. aureus; type: cell-based; conditions: S. aureus
Protocol: (§2) Bacterial and fungal strains (Bacillus subtilis, Staphylococcus aureus, Lactobacillus fermentum, Escherichia coli, Pseudomonas aeruginosa, Salmonella enterica and Candida albicans) were activated on TSA (Tryptic Soy Agar) and SA (Sabouraud–4% dextrose agar) media, respectively. Before the experiment, the microbial strains were grown in the corresponding liquid media at a concentration of approximately 5 × 10^5 CFU ml^−1 for bacteria and 1 × 10^3 CFU ml^−1 for fungi. The microbial suspension (190 µl) was mixed with 10 µl of the test sample, which was serially diluted twofold, and the microplate was incubated at 37°C for 16–24 h.

[3] = test system: KB, MCF-7, A549, HepG2, HEK293 cell lines; experiment: MTT cytotoxicity assay, range over all tested cell lines; type: cell-based, human; conditions: Homo sapiens; range over all tested cell lines, MTT, 72 h
Protocol: as §1, with “value. Ellipticine was used as reference.” for “value.”

[4] = test system: MCF-7 cell line; set-up: method as in doi:10.1016/j.jff.2013.10.018; conditions: cited from earlier work
[5] = test system: S. aureus (MRSA; methicillin-resistant strain); set-up: method as in PMID 22494050; conditions: cited from earlier work
[6] = test system: HEK293 embryonic kidney cells; experiment: MTT cytotoxicity assay, HEK293; type: cell-based, human; conditions: Homo sapiens, HEK293 healthy cell line, 72 h, mean ± s.d., three replicates
Protocol: as §1, with “value. Ellipticine was used as reference.” for “value.”

[7] = test system: Candida albicans; experiment: Anti-microbial activity assay, C. albicans; type: cell-based
Protocol: as §2

[8] = test system: HeLa and SiHa cells; conditions: cited from earlier work
[9] = test system: Enterococcus (VRE; vancomycin-resistant strain); set-up: method as in PMID 22494050; conditions: cited from earlier work
[10] = target: α-glucosidase; conditions: ref 44; read-out: IC50, α-glucosidase inhibitory activity; cited from earlier work
[11] = test system: Bacillus subtilis; experiment: Anti-microbial activity assay, B. subtilis; type: cell-based; conditions: B. subtilis
Protocol: as §2

[12] = test system: hepatocellular carcinoma cell lines (Huh-7, SK-Hep-1, HA22T/VGH cell lines); conditions: cited from earlier work
[13] = test system: Pseudomonas aeruginosa; experiment: Anti-microbial activity assay, P. aeruginosa; type: cell-based
Protocol: as §2

[14] = test system: U251 cells; set-up: method as in PMID 34896543; conditions: U251 glioma cells; read-out: IC50, cell survival; cited from earlier work
[15] = test system: Lactobacillus fermentum; experiment: Anti-microbial activity assay, L. fermentum; type: cell-based; conditions: L. fermentum
Protocol: as §2

[16] = test system: HepG2 liver cancer; experiment: MTT cytotoxicity assay, HepG2; type: cell-based, human; conditions: Homo sapiens, HepG2 cell line, 72 h, mean ± s.d., three replicates
Protocol: as §1, with “value. Ellipticine was used as reference.” for “value.”

[17] = test system: A549 lung cancer; experiment: MTT cytotoxicity assay, A549; type: cell-based, human; conditions: Homo sapiens; A549 cell line, MTT, 72 h, mean ± s.d., three replicates; read-out: IC50
Protocol: as §1, with “value. Ellipticine was used as reference.” for “value.”

[18] = test system: Escherichia coli; experiment: Anti-microbial activity assay, E. coli; type: cell-based
Protocol: as §2

[19] = target: T1, α-glucosidase (Saccharomyces cerevisiae, UniProt P53341); experiment: Alpha-glucosidase inhibitory assay; type: biochemical
T1 construct: purchased Sigma
Protocol: Beta-mangostin and α-mangostin were purchased from Chengdu Biopurify Phytochemicals, Ltd. Recombinant Escherichia coli (BL21 (DE3)) strains were kindly provided by Prof. Jae Kyung Sohng, Sun Moon University, Korea. The cell lines and microorganisms were derived from the American Type Culture Collection (ATCC). α-Glucosidase (CAS no. 900-42-7, Sigma) was from Saccharomyces cerevisiae. All chemicals were of analytical grade and available.
The α-glucosidase inhibitory activity assay was conducted using a reaction mixture containing phosphate buffer (100 mM; pH 6.8), p-nitrophenyl-α-D-glucopyranoside (pNPG) (2.5 mM) and samples at various concentrations. The reactions were initiated by adding α-glucosidase (0.2 U ml^−1), incubated at 37°C for 30 min and quenched by adding Na2CO3 (50 mM). The absorbance of the reaction was determined using a BioTek instrument at a wavelength of 410 nm (A).

T1 sequence (P53341 whole entry): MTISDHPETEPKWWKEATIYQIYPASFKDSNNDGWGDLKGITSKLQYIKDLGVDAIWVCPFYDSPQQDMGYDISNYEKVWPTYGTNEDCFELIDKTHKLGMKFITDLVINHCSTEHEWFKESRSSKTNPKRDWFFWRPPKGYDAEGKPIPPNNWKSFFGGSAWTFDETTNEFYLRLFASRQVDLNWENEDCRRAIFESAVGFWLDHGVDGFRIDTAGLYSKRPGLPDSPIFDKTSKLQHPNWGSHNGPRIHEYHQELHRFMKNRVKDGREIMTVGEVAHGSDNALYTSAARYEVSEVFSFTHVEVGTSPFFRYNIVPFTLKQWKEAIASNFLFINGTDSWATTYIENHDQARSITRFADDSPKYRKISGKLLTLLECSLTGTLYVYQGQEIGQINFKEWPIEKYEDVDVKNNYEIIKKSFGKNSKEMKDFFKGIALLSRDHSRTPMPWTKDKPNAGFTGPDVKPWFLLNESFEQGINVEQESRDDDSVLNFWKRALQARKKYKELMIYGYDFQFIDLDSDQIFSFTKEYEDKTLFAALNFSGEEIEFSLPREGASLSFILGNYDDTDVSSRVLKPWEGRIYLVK

COc1cc2oc3cc(O)c(OC)c(CC=C(C)C)c3c(=O)c2c(O)c1CC=C(C)C [β-mangostin]
IC50 [1]: 18 ± 8.1 µM
IC50 ([2]; read-out: IC50): 1.24 ± 0.05 µg/mL (≈ 2.92 µM)
MIC ([2]; read-out: MIC): > 32 µg/mL
IC50 [3]: 15.4 to 21.1 µM
IC50 ([4]; MCF-7, 24 h treatment): 26 µM
IC50 ([4]; MCF-7, 48 h treatment): 16.5 µM
MIC [5]: > 200 µg/mL
IC50 [6]: 15.6 ± 6.5 µM
MIC [7]: greater than 32 μg ml^−1
IC50 ([7]; Candida albicans, read-out: IC50): > 32 µg/mL
MIC ([7]; Candida albicans, read-out: MIC): > 32 µg/mL
cytotoxicity or cell cycle suppression [8]: did not cause cytotoxicity or cell cycle suppression
MIC [9]: > 200 µg/mL
IC50 [10]: 14.4 µM
IC50 ([11]; read-out: IC50): 0.16 ± 0.01 µg/mL (≈ 0.377 µM)
MIC ([11]; read-out: MIC): 0.5 µg/mL (≈ 1.18 µM)
cytotoxicity or cell cycle suppression [12]: did not cause cytotoxicity or cell cycle suppression
MIC [13]: greater than 32 μg ml^−1
IC50 ([13]; Pseudomonas aeruginosa): > 32 µg/mL
MIC ([13]; Pseudomonas aeruginosa, read-out: MIC): > 32 µg/mL
IC50 [14]: 5.8 µM
IC50 ([15]; read-out: IC50): 0.18 ± 0.01 µg/mL (≈ 0.424 µM)
MIC ([15]; read-out: MIC): 0.5 µg/mL (≈ 1.18 µM)
IC50 [16]: 18.9 ± 7.6 µM
IC50 [17]: 15.4 ± 5.1 µM
MIC [18]: greater than 32 μg ml^−1
IC50 ([18]; Escherichia coli): > 32 µg/mL
MIC ([18]; Escherichia coli, read-out: MIC): > 32 µg/mL
IC50 [19]: 27.6 ± 4.6 µM
inhibitory potency ratio ([19]; compared with the positive control acarbose): 7.55
